Source: US11382328B2, “Rapid drug discovery methods for pathogen inactivation” (priority 2019, dated 2022)

System: E. coli strain W3110
Test: Synergy assays: Biolog chemical sensitivity panels with Group IB metal, coefficient of drug interaction (CDI) from relative growth
Assay type: cell-based
Conditions: for CDI (coefficient of drug interaction): Copper (mM), E. coli; for CDI (coefficient of drug interaction), gold + biocide: Gold (μM)

penimepicycline
CDI (coefficient of drug interaction) (1st of 3 copper concentrations (head line not shown), biocide concentration 1 of 4): 0.91
CDI (coefficient of drug interaction) (1st of 3 copper concentrations (head line not shown), biocide concentration 2 of 4): 1.07
CDI (coefficient of drug interaction) (1st of 3 copper concentrations (head line not shown), biocide concentration 3 of 4): Tox
CDI (coefficient of drug interaction) (1st of 3 copper concentrations (head line not shown), biocide concentration 4 of 4): Tox
CDI (coefficient of drug interaction) (2nd of 3 copper concentrations (head line not shown), biocide concentration 1 of 4): 0.70
CDI (coefficient of drug interaction) (2nd of 3 copper concentrations (head line not shown), biocide concentration 2 of 4): 0.87
CDI (coefficient of drug interaction) (2nd of 3 copper concentrations (head line not shown), biocide concentration 3 of 4): Tox
CDI (coefficient of drug interaction) (2nd of 3 copper concentrations (head line not shown), biocide concentration 4 of 4): Tox
CDI (coefficient of drug interaction) (3rd of 3 copper concentrations (head line not shown), biocide concentration 1 of 4): 0.51
CDI (coefficient of drug interaction) (3rd of 3 copper concentrations (head line not shown), biocide concentration 2 of 4): 0.64
CDI (coefficient of drug interaction) (3rd of 3 copper concentrations (head line not shown), biocide concentration 3 of 4): Tox
CDI (coefficient of drug interaction) (3rd of 3 copper concentrations (head line not shown), biocide concentration 4 of 4): Tox
CDI (coefficient of drug interaction), gold + biocide (first of 3 gold concentrations, biocide concentration 1 of 4): 1.07
CDI (coefficient of drug interaction), gold + biocide (first of 3 gold concentrations, biocide concentration 2 of 4): 1.12
CDI (coefficient of drug interaction), gold + biocide (first of 3 gold concentrations, biocide concentration 3 of 4): Tox
CDI (coefficient of drug interaction), gold + biocide (first of 3 gold concentrations, biocide concentration 4 of 4): Tox
CDI (coefficient of drug interaction), gold + biocide (second of 3 gold concentrations, biocide concentration 3 of 4): Tox
CDI (coefficient of drug interaction), gold + biocide (second of 3 gold concentrations, biocide concentration 4 of 4): Tox
CDI (coefficient of drug interaction), gold + biocide (third of 3 gold concentrations, biocide concentration 1 of 4): 0.90
CDI (coefficient of drug interaction), gold + biocide (third of 3 gold concentrations, biocide concentration 2 of 4): 0.80
CDI (coefficient of drug interaction), gold + biocide (third of 3 gold concentrations, biocide concentration 3 of 4): Tox
CDI (coefficient of drug interaction), gold + biocide (third of 3 gold concentrations, biocide concentration 4 of 4): Tox
CDI (Silver 0.5 μM, biocide concentration 2 of 4): 1.10
CDI (Silver 0.5 μM, biocide concentration 3 of 4): Tox
CDI (Silver 0.5 μM, biocide concentration 4 of 4): Tox
CDI (Silver 1.0 μM, biocide concentration 1 of 4): 0.91
CDI (Silver 1.0 μM, biocide concentration 2 of 4): 0.91
CDI (Silver 1.0 μM, biocide concentration 3 of 4): Tox
CDI (Silver 1.0 μM, biocide concentration 4 of 4): Tox
CDI (Silver 5.0 μM, biocide concentration 1 of 4): 0.49
CDI (Silver 5.0 μM, biocide concentration 2 of 4): 0.34
CDI (Silver 5.0 μM, biocide concentration 3 of 4): Tox
CDI (Silver 5.0 μM, biocide concentration 4 of 4): Tox
